Data on 12 molecules can be found in patent publication US11957687B2 (REGENERON PHARMACEUTICALS, INC., priority 2019, dated 2024).

Chain of HSD17B13 (Q7Z5P4 other isoform, or with tags, fused parts or gaps): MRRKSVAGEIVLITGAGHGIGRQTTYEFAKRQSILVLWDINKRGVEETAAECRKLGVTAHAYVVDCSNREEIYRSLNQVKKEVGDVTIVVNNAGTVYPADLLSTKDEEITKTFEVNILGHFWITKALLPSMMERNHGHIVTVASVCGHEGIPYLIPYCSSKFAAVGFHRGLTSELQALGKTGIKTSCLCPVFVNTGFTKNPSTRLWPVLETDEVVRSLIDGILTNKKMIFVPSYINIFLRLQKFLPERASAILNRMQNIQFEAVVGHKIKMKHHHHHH

The experiment concerns the target HSD17B13 (Homo sapiens (Human), UniProt Q7Z5P4). Kind of experiment: HSD17B13 enzymatic inhibition assay (150 nM or 50 nM HSD17B13). Particulars: 50 nM HSD17B13; read-out: Inhibition of 50 nM of HSD17B13 IC50. The experiment is classed as biochemical.
The IC50 is the concentration needed to halve the response being measured. `CC(F)(F)c1ccc(C(=O)NC2c3ccccc3Sc3ccccc32)c(=O)[nH]1` [Compound 423, 6-(1,1-difluoroethyl)-2-oxo-N-(9H-thioxanthen-9-yl)-1,2-dihydropyridine-3-carboxamide]: the IC50 came to 790 nM.
Next, `CC(F)(F)c1ccc(C(=O)NC2c3ccccc3Oc3ccccc32)c(=O)[nH]1` [Compound 424, 6-(1,1-difluoroethyl)-2-oxo-N-(9H-xanthen-9-yl)-1,2-dihydropyridine-3-carboxamide]: 1140 nM; `Cc1ccc2c(c1)S(=O)(=O)c1cc(C)ccc1C2NC(=O)c1cc(N2CCNCC2)c(C(F)(F)F)[nH]c1=O` [Compound 425, N-(3,6-dimethyl-10,10-dioxido-9H-thioxanthen-9-yl)-2-oxo-5-(piperazin-1-yl)-6-(trifluoromethyl)-1,2-dihydropyridine-3-carboxamide]: 270 nM; `Cc1ccc2c(c1)Sc1cc(C)ccc1C2NC(=O)c1cc(N2CCN(C)CC2)c(C(F)(F)F)[nH]c1=O` [Compound 427, N-(3,6-dimethyl-9H-thioxanthen-9-yl)-5-(4-methylpiperazin-1-yl)-2-oxo-6-(trifluoromethyl)-1,2-dihydropyridine-3-carboxamide]: 130 nM.
Next, `Cc1ccc2c(c1)S(=O)(=O)c1cc(C)ccc1C2NC(=O)c1cc(NC2CCCCC2)c(C(F)(F)F)[nH]c1=O` [Compound 428, 5-(cyclohexylamino)-N-(3,6-dimethyl-10,10-dioxido-9H-thioxanthen-9-yl)-2-oxo-6-(trifluoromethyl)-1,2-dihydropyridine-3-carboxamide]: 20 nM; `Cc1ccc2c(c1)Oc1cc(C)ccc1C2NC(=O)c1cc(CN2CCNCC2)c(C(F)(F)F)[nH]c1=O` [Compound 429, N-(3,6-dimethyl-9H-xanthen-9-yl)-2-oxo-5-(piperazin-1-ylmethyl)-6-(trifluoromethyl)-1,2-dihydropyridine-3-carboxamide]: 320 nM.
The value for `Cc1ccc2c(c1)Oc1cc(C)ccc1C2NC(=O)c1cc(N2CCN(Cc3ccccc3)CC2)c(C(F)(F)F)[nH]c1=O` [Compound 430, 5-(4-benzylpiperazin-1-yl)-N-(3,6-dimethyl-9H-xanthen-9-yl)-2-oxo-6-(trifluoromethyl)-1,2-dihydropyridine-3-carboxamide] was 40 nM; that for `Cc1ccc2c(c1)Sc1cc(C)ccc1C2NC(=O)c1cc(NC2CCCCC2)c(C(F)(F)F)[nH]c1=O` [Compound 431, 5-(cyclohexylamino)-N-(3,6-dimethyl-9H-thioxanthen-9-yl)-2-oxo-6-(trifluoromethyl)-1,2-dihydropyridine-3-carboxamide] was 130 nM; that for `Cc1ccc2c(c1)Sc1cc(C)ccc1C2NC(=O)c1cc(N2CCNCC2)c(C(F)(F)F)[nH]c1=O` [Compound 432, N-(3,6-dimethyl-9H-thioxanthen-9-yl)-2-oxo-5-(piperazin-1-yl)-6-(trifluoromethyl)-1,2-dihydropyridine-3-carboxamide] was 330 nM.
For the molecule `Cc1ccc2c(c1)Oc1cc(C)ccc1C2NC(=O)c1cc(NC2CCNCC2)c(C(F)(F)F)[nH]c1=O` [Compound 433, N-(3,6-dimethyl-9H-xanthen-9-yl)-2-oxo-5-(piperidin-4-ylamino)-6-(trifluoromethyl)-1,2-dihydropyridine-3-carboxamide], the half-maximal inhibitory concentration (IC50) was 730 nM.
Turning to `Cc1ccc2c(c1)Oc1cc(C)ccc1C2NC(=O)c1cc(N2CCNCC2)c(C(F)(F)F)[nH]c1=O` [Compound 434, N-(3,6-dimethyl-9H-xanthen-9-yl)-2-oxo-5-(piperazin-1-yl)-6-(trifluoromethyl)-1,2-dihydropyridine-3-carboxamide], the IC50 came out at 110 nM.
For `Cc1ccc2c(c1)Oc1cccc(C)c1C2NC(=O)c1cc(N2CCCCC2)c(C(F)(F)F)[nH]c1=O` (stereo not drawn) [Compound 437, N-(1,6-dimethyl-9H-xanthen-9-yl)-2-oxo-5-(piperidin-1-yl)-6-(trifluoromethyl)-1,2-dihydropyridine-3-carboxamide], the half-maximal inhibitory concentration (IC50) stood at 1290 nM.
